# Reference: US6083956A, “Optically pure androgen mediator” (Pfizer Inc., priority 1999, dated 2000)
# pIC50: −log10 of the molar value. Where two headings read alike, the source gives them in different places.
# Target: T1, recombinant human androgen receptor (hAR) (Homo sapiens, UniProt P10275)
# T1 construct: made in house; host or cells: Sf9 insect cells (baculovirus)
# Test: Human Androgen Receptor Binding Analysis (competitive binding vs 3H-dihydrotestosterone)
# Details: 1 nM 3H-DHT tracer, hydroxylapatite, one hour at 4° C
# [1] = hAR Binding IC50, baculovirus/Sf9 generated hAR extract
# Protocol: The following is a brief description of the assay that determines the affinity of a compound for the recombinant human androgen receptor (hAR). Competitive binding analysis is performed on baculovirus/Sf9 generated hAR extracts in the presence or absence of differing concentrations of drug and a fixed concentration of ^3 H-dihydrotestosterone (^3 H-DHT) as tracer. […] Briefly, progressively decreasing concentrations of compounds are incubated in the presence of hAR extract (Chang et al. P.N.A.S. Vol. 89, pp. 5546-5950, 1992), hydroxylapatite and 1 nM ^3 H-DHT for one hour at 4° C. Subsequently, the binding reactions are washed three times to completely remove excess unbound ^3 H-DHT. hAR bound.
# ^3 H-DHT levels are determined in the presence of compounds (=competitive binding) and compared to levels bound when no competitor is present (=maximum binding). Compound binding affinity to the hAR is expressed as the concentration of compound at which one half of the maximum binding is inhibited.
# T1 sequence (P10275 whole entry): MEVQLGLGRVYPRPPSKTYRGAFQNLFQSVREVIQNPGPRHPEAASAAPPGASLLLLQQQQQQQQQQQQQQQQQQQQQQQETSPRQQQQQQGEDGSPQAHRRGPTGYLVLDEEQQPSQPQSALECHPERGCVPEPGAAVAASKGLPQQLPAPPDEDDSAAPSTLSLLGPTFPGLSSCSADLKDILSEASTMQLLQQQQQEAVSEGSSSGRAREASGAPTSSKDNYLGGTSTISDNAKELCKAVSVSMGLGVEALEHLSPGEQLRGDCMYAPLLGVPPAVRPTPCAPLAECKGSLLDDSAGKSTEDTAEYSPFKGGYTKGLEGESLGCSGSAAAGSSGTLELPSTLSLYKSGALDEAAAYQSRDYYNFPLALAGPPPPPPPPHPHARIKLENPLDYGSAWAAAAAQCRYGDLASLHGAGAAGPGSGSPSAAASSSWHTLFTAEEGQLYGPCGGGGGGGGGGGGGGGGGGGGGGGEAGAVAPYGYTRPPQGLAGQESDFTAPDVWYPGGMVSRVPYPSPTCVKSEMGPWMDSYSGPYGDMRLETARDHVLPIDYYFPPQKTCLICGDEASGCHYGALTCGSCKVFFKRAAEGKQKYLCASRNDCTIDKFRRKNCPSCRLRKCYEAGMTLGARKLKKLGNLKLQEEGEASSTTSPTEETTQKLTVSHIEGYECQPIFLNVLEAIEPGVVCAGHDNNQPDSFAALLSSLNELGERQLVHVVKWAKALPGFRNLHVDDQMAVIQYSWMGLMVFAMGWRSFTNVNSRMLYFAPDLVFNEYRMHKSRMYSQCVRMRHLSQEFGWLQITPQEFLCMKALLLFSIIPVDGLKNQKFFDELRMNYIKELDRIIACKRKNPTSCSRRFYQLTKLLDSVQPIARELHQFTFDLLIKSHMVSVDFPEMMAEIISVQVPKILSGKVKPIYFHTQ
structure (smiles),measurement,setting,value
"CCC1CCNc2cc3oc(=O)cc(C(F)(F)F)c3cc21 (single isomer, unassigned; (-)) [(-) Enantiomer, (-)-5-ethyl-4-trifluoromethyl-5,6,7,8-tetrahydro-1-oxa-8-aza-anthracen-2-one]",pIC50,[1],8.30
"CCC1CCNc2cc3oc(=O)cc(C(F)(F)F)c3cc21 (racemic) [Racemate (±), Racemic 5-ethyl-4-trifluoromethyl-5,6,7,8-tetrahydro-1-oxa-8-aza-anthracen-2-one, reference compound]",pIC50,"baculovirus/Sf9 generated hAR extract, read-out: hAR Binding IC50",7.46
"CCC1CCNc2cc3oc(=O)cc(C(F)(F)F)c3cc21 (single isomer, unassigned; (+)) [(+) Enantiomer, (+)-5-Ethyl-4-trifluoromethyl-5,6,7,8-tetrahydro-1-oxa-8-aza-anthracen-2-one]",pIC50,[1],6.95
